8 compounds from BindingDB's records for doi:10.1021/jm1009154 (University of Copenhagen, 2010) can be followed below.

Excitatory amino acid transporter 1, sequence (P43003 whole entry): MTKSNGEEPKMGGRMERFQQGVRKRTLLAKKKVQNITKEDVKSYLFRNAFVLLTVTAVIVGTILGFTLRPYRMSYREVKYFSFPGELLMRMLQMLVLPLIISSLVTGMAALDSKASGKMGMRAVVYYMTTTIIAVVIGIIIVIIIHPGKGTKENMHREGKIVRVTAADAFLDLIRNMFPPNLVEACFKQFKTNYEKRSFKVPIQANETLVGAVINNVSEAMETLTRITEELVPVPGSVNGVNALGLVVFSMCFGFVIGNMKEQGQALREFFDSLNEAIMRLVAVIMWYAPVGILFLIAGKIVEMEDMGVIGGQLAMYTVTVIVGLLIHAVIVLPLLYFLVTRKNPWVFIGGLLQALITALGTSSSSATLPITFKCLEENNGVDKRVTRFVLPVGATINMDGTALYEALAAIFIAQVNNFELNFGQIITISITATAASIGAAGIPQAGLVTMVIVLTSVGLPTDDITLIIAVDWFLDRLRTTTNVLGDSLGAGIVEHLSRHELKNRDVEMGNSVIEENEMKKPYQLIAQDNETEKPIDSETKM

This test addresses Excitatory amino acid transporter 1 (Homo sapiens, UniProt P43003). The test is described as follows: Inhibition of human EAAT1 expressed in HEK293 cells by [3H]D-Asp uptake assay.
Compound `N=C1CC(c2ccccc2)C2=C(CC(c3ccccc3)CC2=O)O1` (stereo not drawn) [2-Amino-4,7-diphenyl-7,8-dihydro-4H-chromen-5(6H)-one] came in with an IC50 greater than 100 µM. The same measure for `N#CC1C(=N)OC2=C(C(=O)N[C@@H](c3ccccc3)C2)[C@@H]1c1ccccc1` (relative stereo) [syn-2-amino-5-oxo-4,7-diphenyl-5,6,7,8-tetrahydro-4H-pyrano[3,2-c]pyridine-3-carbonitrile]: greater than 300 µM; for `COC(=O)C1C(=N)OC2=C(C(=O)CC(c3ccccc3)C2)C1c1ccccc1` (stereo not drawn) [Methyl2-Amino-5-oxo-4,7-diphenyl-5,6,7,8-tetrahydro-4Hchromene-3-carboxylate]: greater than 300 µM; for `CC1CC(=O)C2=C(C1)OC(=N)C(C#N)C2c1ccc2c(c1)OCO2` (stereo not drawn) [2-amino-4-(benzo[d][1,3]dioxol-5-yl)-7-methyl-5-oxo-5,6,7,8-tetrahydro-4H-chromene-3-carbonitrile]: greater than 316 µM.

For `N=C1OC2=C(C(=O)CC(c3ccccc3)C2)C(c2ccccc2)C1C(N)=O` (stereo not drawn) [2-Amino-5-oxo-4,7-diphenyl-5,6,7,8-tetrahydro-4H-chromene-3-carboxamide], the IC50 was greater than 100 µM. For `N#CC1C(=N)OC2=C(C(=O)O[C@@H](c3ccccc3)C2)[C@@H]1c1ccccc1` (relative stereo) [syn-2-Amino-5-oxo-4,7-diphenyl-4,5,7,8-tetrahydropyrano[4,3-b]-pyran-3-carbonitrile], the half-inhibitory concentration (IC50) is greater than 300 µM. The figure for `N#CC1C(=N)OC2=C(C(=O)O[C@H](c3ccccc3)C2)[C@@H]1c1ccccc1` (relative stereo) [anti-2-Amino-5-oxo-4,7-diphenyl-4,5,7,8-tetrahydropyrano[4,3-b]-pyran-3-carbonitril] is greater than 300 µM. The same measure for `N#CC1C(=N)OC2=C(C(=O)N[C@H](c3ccccc3)C2)[C@@H]1c1ccccc1` (relative stereo) [anti-2-Amino-5-oxo-4,7-diphenyl-5,6,7,8-tetrahydro-4H-pyrano-[3,2-c]pyridine-3-carbonitrile]: greater than 316 µM.
